Experimental findings from patent publication US20140107021A1 (priority 2010, published 2014) are described below.

Where two headings read alike, the source gives them in different places. Numbered stars: 1 amine (or outer) side, 2 acyl side, 3 side chain; on linkers, the order of the positions; unused ones are H or OH. Square brackets hold non-standard residues; d marks the D form. Side chains are listed from the residue outwards. Ends that are not written are not given here. Peptide text beside a SMILES is read from it. γGlu = O=C(O)[C@H](CCC(=O)[*:2])N[*:1]; C16 acyl = 16 carbon fatty acyl group; Aib = CC(C)(N)C(=O)O

Series [1] can be described thus: solubility at pH 6-8. The series is classed as physicochemical.
Series [2] addresses T1, glucagon receptor (Homo sapiens, UniProt P47871). The experiment in a line: glucagon receptor binding. Also on record: expressed in transfected cells; host or cells: HEK293. As to conditions: read-out: IC50(nM) (Receptor binding).
The target in series [3] is T1, glucagon receptor. The experiment in a line: cell-based. The conditions noted are these: Table J. The text has this:
(§1) HEK293 cells co-transfected with the receptor and luciferase gene linked to a cAMP responsive element were employed for the bioassay.
(§2) All EC50s and IC50s are reported in the following examples in nM, unless indicated otherwise.

For series [4], the target named is T2, GLP-1 receptor (Homo sapiens, UniProt P43220).
T2 construct: expressed in transfected cells; host or cells: HEK293
The experiment in a line: cAMP induction at the GLP-1 receptor (agonist activity), firefly luciferase reporter assay in HEK293 cells. The series is classed as cell-based.
Source text: as §1, §2
Background: Reporter assays use an easily measured gene product as a stand-in for the process of interest.

Series [5] concerns the target T3, GIP receptor (Homo sapiens, UniProt P48546).
T3 construct: expressed in transfected cells; host or cells: HEK293
T3 sequence (P48546 22-466): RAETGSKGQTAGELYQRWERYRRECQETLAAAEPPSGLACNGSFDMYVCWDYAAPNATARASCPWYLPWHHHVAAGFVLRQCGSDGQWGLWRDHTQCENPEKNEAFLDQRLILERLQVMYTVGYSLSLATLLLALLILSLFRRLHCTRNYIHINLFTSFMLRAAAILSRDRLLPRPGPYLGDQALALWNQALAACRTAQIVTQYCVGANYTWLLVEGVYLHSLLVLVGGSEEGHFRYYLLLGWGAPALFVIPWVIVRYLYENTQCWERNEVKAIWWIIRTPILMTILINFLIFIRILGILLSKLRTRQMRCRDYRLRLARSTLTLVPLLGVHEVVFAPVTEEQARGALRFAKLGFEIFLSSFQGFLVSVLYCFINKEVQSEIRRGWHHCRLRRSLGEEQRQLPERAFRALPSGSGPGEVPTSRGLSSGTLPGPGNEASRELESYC
The experiment in a line: cAMP induction at the GIP receptor (agonist activity), luciferase reporter assay in HEK293 cells. The series is classed as cell-based. The conditions noted are these: for EC50: read-out: GIPR EC50.
Source text: as §1, §2

Series [6] is classed as in vivo, C57Bl/6 mice. As to conditions: 30 nmol/kg subcutaneously daily for one week.
Series [7] is described as follows: Example 10: MT-263 under varied administration regimen in diet-induced obesity mice, 6 day study. Type of series: in vivo, Diet-induced obesity (DIO) mice. The conditions noted are these: injected on a daily basis (10 nmol/kg), compared with every 2 or 3 days. The procedure: Diet-induced obesity (DIO) mice (N=8, 10 mice per group) were injected during the course of the 6 day study as follows: […]

In series [8] the target is T1, glucagon receptor. The experiment in a line: cAMP induction at the glucagon receptor (agonist activity), luciferase reporter assay in HEK293 cells. The series is classed as cell-based. Also on record: expressed in transfected cells; host or cells: HEK293. As to conditions: for EC50: read-out: GR EC50.
Source text: as §1, §2

Series [9] can be described thus: Example 8: acylated peptides injected subcutaneously daily for one week into DIO mice. As to conditions: 10 nmol/kg subcutaneously daily for one week. The series is classed as in vivo, DIO mice (C57Bl/6 WT). On the procedure: Different doses of acylated peptides comprising a Lys at position 16 and an AIB at position 20 were tested in vivo. […] The mice had been on a high fat diet diet for ˜8 months. Body weight and food intake were measured on days 0, 1, 3, 5, and 7, whereas blood glucose levels were measured on Days 0 and 7 of the experiment. Each test group and control group consisted of 8 mice.

[10] abbreviates: IC50(nM) (cAMP, inhibit Glucagon) 0.1 nM, inhibit 0.1 nM glucagon.
Setting [11] is: Table 7, relative to the native ligand of the receptor.

T1 sequence (P47871 26-477): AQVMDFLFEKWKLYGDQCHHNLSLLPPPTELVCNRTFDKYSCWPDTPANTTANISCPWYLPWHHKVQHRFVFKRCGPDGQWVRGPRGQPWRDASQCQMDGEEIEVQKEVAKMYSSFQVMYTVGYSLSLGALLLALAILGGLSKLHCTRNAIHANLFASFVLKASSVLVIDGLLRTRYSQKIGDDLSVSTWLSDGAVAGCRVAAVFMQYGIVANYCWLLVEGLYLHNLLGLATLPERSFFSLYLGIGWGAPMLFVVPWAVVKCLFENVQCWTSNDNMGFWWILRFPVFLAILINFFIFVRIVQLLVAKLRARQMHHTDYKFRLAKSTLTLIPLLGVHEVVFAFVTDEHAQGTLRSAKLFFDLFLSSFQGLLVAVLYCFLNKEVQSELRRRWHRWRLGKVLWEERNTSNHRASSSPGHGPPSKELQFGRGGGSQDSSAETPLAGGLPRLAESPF
T2 sequence (P43220 24-463): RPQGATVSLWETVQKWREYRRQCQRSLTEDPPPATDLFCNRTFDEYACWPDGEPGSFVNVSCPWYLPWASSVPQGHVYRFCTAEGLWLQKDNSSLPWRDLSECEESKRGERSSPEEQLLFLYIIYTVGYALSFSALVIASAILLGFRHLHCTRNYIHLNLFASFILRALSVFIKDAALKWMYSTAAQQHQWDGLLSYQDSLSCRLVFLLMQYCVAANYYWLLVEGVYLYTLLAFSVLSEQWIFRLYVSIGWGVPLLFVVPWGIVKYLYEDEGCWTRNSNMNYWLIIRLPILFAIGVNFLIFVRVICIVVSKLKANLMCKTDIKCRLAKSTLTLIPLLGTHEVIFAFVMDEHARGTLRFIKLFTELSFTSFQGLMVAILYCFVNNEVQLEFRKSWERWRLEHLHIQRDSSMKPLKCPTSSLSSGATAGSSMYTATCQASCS

Broadly, the IC50 is the point on the concentration scale where inhibition reaches its midpoint. Turning to `CSCC[C@H](NC(=O)[C@H](CC(C)C)NC(=O)[C@H](Cc1c[nH]c2ccccc12)NC(=O)[C@H](CCC(N)=O)NC(=O)[C@@H](NC(=O)[C@H](Cc1ccccc1)NC(=O)[C@H](CC(=O)O)NC(=O)[C@H](CCC(N)=O)NC(=O)[C@H](C)NC(=O)[C@H](CCCNC(=N)N)NC(=O)[C@H](CCCNC(=N)N)NC(=O)[C@H](CO)NC(=O)[C@H](CC(=O)O)NC(=O)[C@H](CC(C)C)NC(=O)[C@H](Cc1ccc(O)cc1)NC(=O)[C@H](CCCCN)NC(=O)[C@H](CO)NC(=O)[C@H](Cc1ccc(O)cc1)NC(=O)[C@H](CC(=O)O)NC(=O)[C@H](CO)NC(=O)[C@@H](NC(=O)[C@@H](O)Cc1ccccc1)[C@@H](C)O)C(C)C)C(=O)N[C@@H](CC(N)=O)C(=O)N[C@H](C(N)=O)[C@@H](C)O` [[PLA6, D9]Glucagon(aa6-29)-NH2] (HELM PEPTIDE1{[O=C([C@@H](O)Cc1ccccc1)[*:2]].T.S.D.Y.S.K.Y.L.D.S.R.R.A.Q.D.F.V.Q.W.L.M.N.T.[am]}$$$$V2.0), the “Solubility (%, pH 6-8)” value in series [1] was determined as 11%. Further, in series [2] (Table J), the IC50 came to 13.9 ± 3.22 nM.
On to `CSCC[C@H](NC(=O)[C@H](CC(C)C)NC(=O)[C@H](Cc1c[nH]c2ccccc12)NC(=O)[C@H](CCC(N)=O)NC(=O)[C@@H](NC(=O)[C@H](Cc1ccccc1)NC(=O)[C@H](CC(=O)O)NC(=O)[C@H](CCC(N)=O)NC(=O)[C@H](C)NC(=O)[C@H](CCCNC(=N)N)NC(=O)[C@H](CCCNC(=N)N)NC(=O)[C@H](CO)NC(=O)[C@H](CC(=O)O)NC(=O)[C@H](CC(C)C)NC(=O)[C@H](Cc1ccc(O)cc1)NC(=O)[C@H](CCCCN)NC(=O)[C@H](CO)NC(=O)[C@H](Cc1ccc(O)cc1)NC(=O)[C@H](CCC(=O)O)NC(=O)[C@H](CO)NC(=O)[C@@H](NC(=O)[C@@H](O)Cc1ccccc1)[C@@H](C)O)C(C)C)C(=O)N[C@@H](CC(N)=O)C(=O)N[C@H](C(=O)NCC(=O)N1CCC[C@H]1C(=O)N[C@@H](CO)C(=O)N[C@@H](CO)C(=O)NCC(=O)N[C@@H](C)C(=O)N1CCC[C@H]1C(=O)N1CCC[C@H]1C(=O)N1CCC[C@H]1C(=O)N[C@@H](CO)C(N)=O)[C@@H](C)O` [[PLA6, E9]Glucagon (aa6-29 + CEX)-NH2] (HELM PEPTIDE1{[O=C([C@@H](O)Cc1ccccc1)[*:2]].T.S.E.Y.S.K.Y.L.D.S.R.R.A.Q.D.F.V.Q.W.L.M.N.T.G.P.S.S.G.A.P.P.P.S.[am]}$$$$V2.0), for which the half-maximal inhibitory concentration (IC50) was 24.8 nM in series [3] (setting [10]) and 40.3 ± 11.3 nM in series [2] (Table J). For the same molecule, the “Solubility (%, pH 6-8)” value in [1] is 16%.
Regarding `CSCC[C@H](NC(=O)[C@H](CC(C)C)NC(=O)[C@H](Cc1c[nH]c2ccccc12)NC(=O)[C@H](CCC(N)=O)NC(=O)[C@@H](NC(=O)[C@H](Cc1ccccc1)NC(=O)[C@H](CC(=O)O)NC(=O)[C@H](CCC(N)=O)NC(=O)[C@H](C)NC(=O)[C@H](CCCNC(=N)N)NC(=O)[C@H](CCCNC(=N)N)NC(=O)[C@H](CO)NC(=O)[C@H](CC(=O)O)NC(=O)[C@H](CC(C)C)NC(=O)[C@H](Cc1ccc(O)cc1)NC(=O)[C@H](CCCCN)NC(=O)[C@H](CO)NC(=O)[C@H](Cc1ccc(O)cc1)NC(=O)[C@H](CCC(=O)O)NC(=O)[C@H](CO)NC(=O)[C@@H](NC(=O)[C@@H](O)Cc1ccccc1)[C@@H](C)O)C(C)C)C(=O)N[C@@H](CC(N)=O)C(=O)N[C@H](C(N)=O)[C@@H](C)O` [[PLA6, E9]Glucagon(aa6-29)-NH2] (HELM PEPTIDE1{[O=C([C@@H](O)Cc1ccccc1)[*:2]].T.S.E.Y.S.K.Y.L.D.S.R.R.A.Q.D.F.V.Q.W.L.M.N.T.[am]}$$$$V2.0), the half-maximal inhibitory concentration (IC50) in series [3] (setting [10]) stood at 2.39 nM; in [3] (IC50(nM) (cAMP, inhibit Glucagon) 0.2 nM, inhibit 0.2 nM glucagon), 42.4 nM; in series [2] (Table J), 12.3 ± 2.24 nM; in [2] (Table K), 12.3 ± 0.13 nM. Besides, in series [1], the “Solubility (%, pH 6-8)” value was found to be 11%.
The EC50 is the concentration at which the effect is half-maximal. Turning to `CC[C@H](C)[C@H](NC(=O)[C@H](CO)NC(=O)[C@H](Cc1ccc(O)cc1)NC(=O)[C@H](CC(=O)O)NC(=O)[C@H](CO)NC(=O)[C@@H](NC(=O)[C@H](Cc1ccccc1)NC(=O)[C@@H](NC(=O)CNC(=O)[C@H](CCC(=O)O)NC(=O)C(C)(C)NC(=O)[C@@H](N)Cc1ccc(O)cc1)[C@@H](C)O)[C@@H](C)O)C(=O)N[C@@H](Cc1ccc(O)cc1)C(=O)N[C@@H](CC(C)C)C(=O)N[C@@H](CC(=O)O)C(=O)N[C@@H](CCCCN)C(=O)N[C@@H](CCC(N)=O)C(=O)N[C@@H](C)C(=O)N[C@@H](C)C(=O)NC(C)(C)C(=O)N[C@@H](CCC(=O)O)C(=O)N[C@@H](Cc1ccccc1)C(=O)N[C@H](C(=O)N[C@@H](CC(N)=O)C(=O)N[C@@H](Cc1c[nH]c2ccccc12)C(=O)N[C@@H](CC(C)C)C(=O)N[C@@H](CC(C)C)C(=O)N[C@@H](C)C(=O)NCC(=O)NCC(=O)N1CCC[C@H]1C(=O)N[C@@H](CO)C(=O)N[C@@H](CO)C(=O)NCC(=O)N[C@@H](C)C(=O)N1CCC[C@H]1C(=O)N1CCC[C@H]1C(=O)N1CCC[C@H]1C(=O)N[C@@H](CO)C(=O)N[C@@H](CCCCN)C(N)=O)C(C)C` [mt-263, Y1Aib2E3I12K16Q17A18Aib20E21N24-LAG27-29-CEX-K], the EC50 in series [4] (Table 3, read-out: GLP-1R EC50) was found to be 0.01 nM; in [5] (Table 3), 5.4 pM; in [5] (Table 4), 3.3 pM; in [8] (Table 3) it was 4.04 nM; in [8] (Table 4) it was 3.14 nM. The “change in blood glucose levels over the course of the 7-day study” value in series [6] is “greatest change in blood glucose levels”. For the same molecule, the “weight loss compared with the Exendin-4-like positive control peptide” value in series [6] was “substantially greater than the Exendin-4-like positive control peptide”. In series [6], the “weight loss over the course of the 7-day study” value is on record as “significant weight loss”. In addition, the “decrease in blood glucose levels” value in series [7] is reported as “biggest decrease in blood glucose levels”.
In the case of “Q3I7K16AIB20K10(rErE-C16) (Y[Aib]QGTFISDK([γGlu-γGlu-C16 acyl])SIYLDKQAA[Aib]EFVNWLLAGGPSSGAPPPS-NH2) [MT-385]”, the “% Relative Activity GLP-1R” value in [4] (setting [11]) is given as 3%. The “% Relative Activity at GIPR” value in [5] (setting [11]) is 715%. Moreover, in series [9], the “total change in body weight (%)” value is listed as “lower change in body weight”. In addition, in series [8] (setting [11]), the “% Relative Activity at GR” value is reported as 239%.
For “Y1Aib2I12K16Q17A18Aib20E21N24-LAG27-29-CEX-K (YXQGTFTSDYSIYLDKQAAXEFVNWLLAGGPSSGAPPPSK; HELM PEPTIDE1{Y.[Aib].Q.G.T.F.T.S.D.Y.S.I.Y.L.D.K.Q.A.A.[Aib].E.F.V.N.W.L.L.A.G.G.P.S.S.G.A.P.P.P.S.K.[am]}$$$$V2.0; N-terminus assumed; SMILES CC[C@H](C)[C@H](NC(=O)[C@H](CO)NC(=O)[C@H](Cc1ccc(O)cc1)NC(=O)[C@H](CC(=O)O)NC(=O)[C@H](CO)NC(=O)[C@@H](NC(=O)[C@H](Cc1ccccc1)NC(=O)[C@@H](NC(=O)CNC(=O)[C@H](CCC(N)=O)NC(=O)C(C)(C)NC(=O)[C@@H](N)Cc1ccc(O)cc1)[C@@H](C)O)[C@@H](C)O)C(=O)N[C@@H](Cc1ccc(O)cc1)C(=O)N[C@@H](CC(C)C)C(=O)N[C@@H](CC(=O)O)C(=O)N[C@@H](CCCCN)C(=O)N[C@@H](CCC(N)=O)C(=O)N[C@@H](C)C(=O)N[C@@H](C)C(=O)NC(C)(C)C(=O)N[C@@H](CCC(=O)O)C(=O)N[C@@H](Cc1ccccc1)C(=O)N[C@H](C(=O)N[C@@H](CC(N)=O)C(=O)N[C@@H](Cc1c[nH]c2ccccc12)C(=O)N[C@@H](CC(C)C)C(=O)N[C@@H](CC(C)C)C(=O)N[C@@H](C)C(=O)NCC(=O)NCC(=O)N1CCC[C@H]1C(=O)N[C@@H](CO)C(=O)N[C@@H](CO)C(=O)NCC(=O)N[C@@H](C)C(=O)N1CCC[C@H]1C(=O)N1CCC[C@H]1C(=O)N1CCC[C@H]1C(=O)N[C@@H](CO)C(=O)N[C@@H](CCCCN)C(N)=O)C(C)C) [MT-280]”, the “% Relative Activity GLP-1R” value in [4] (Table 8) was 225%. For the same molecule, the “% Relative Activity at GIPR” value in [5] (Table 8) is 154%. Also, in series [6], the “change in blood glucose levels over the course of the 7-day study” value is on record as “significant decrease in blood glucose levels”. The “% Relative Activity at GR” value in series [8] (Table 8) turned out to be 60%.
